Measurements published in ChEMBL document CHEMBL5505986, “Design, synthesis and biological evaluation of thiazolyl-halogenated pyrroles or pyrazoles as novel antibacterial and antibiofilm agents” (Eur J Med Chem, 2024).
≈ marks a conversion by molar mass, not a printed value. Calls of active or inactive are those of the source. No cut-off for these calls is given here.

Assays:
Staphylococcus aureus [1] = assay: Antibacterial activity against vancomycin-intermediate resistant Staphylococcus aureus ATCC 700699/Mu50 assessed as reduction in bacterial growth incubated for 24 hrs by broth microdilution method; type: functional
Streptococcus pyogenes = assay: Antibacterial activity against Streptococcus pyogenes ATCC 12204 assessed as reduction in bacterial growth incubated for 24 hrs by broth microdilution method; type: functional
Enterococcus faecium [2] = assay: Antibacterial activity against clinical isolate Enterococcus faecium assessed as reduction in bacterial growth incubated for 24 hrs by broth microdilution method; type: functional
NCI-H1299 = assay: Cytotoxicity against human NCI-H1299 cells measured after 72 hrs by SRB assay; type: functional, cell-based; settings: NCI-H1299, 72 h
NCI-H1975 = assay: Cytotoxicity against human NCI-H1975 cells measured after 72 hrs by SRB assay; type: functional, cell-based; settings: NCI-H1975, 72 h
[3] = Toxicity in Galleria mellonella larvae assessed as reduction in animal survival […]; type: organism-based; settings: in vivo, 80 h
Pseudomonas aeruginosa [4] = assay: Antibacterial activity against Pseudomonas aeruginosa ATCC 47085 assessed as reduction in bacterial growth incubated for 24 hrs by broth microdilution method; type: functional
Klebsiella pneumoniae = assay: Antibacterial activity against Klebsiella pneumoniae ATCC 13883 assessed as reduction in bacterial growth incubated for 24 hrs by broth microdilution method; type: functional
Acinetobacter baumannii = assay: Antibacterial activity against Acinetobacter baumannii ATCC 19606 assessed as reduction in bacterial growth incubated for 24 hrs by broth microdilution method; type: functional
Staphylococcus aureus [5] = assay: Antibiofilm activity against vancomycin-intermediate resistant Staphylococcus aureus ATCC 700699/Mu50 at sub-MIC doses measured after 24 hrs by crystal violet staining based analysis; type: functional
Enterococcus faecium [6] = assay: Antibiofilm activity against Enterococcus faecium clinical isolate at sub-MIC doses measured after 24 hrs by crystal violet staining based analysis; type: functional
Pseudomonas aeruginosa [7] = assay: Antibiofilm activity against Pseudomonas aeruginosa ATCC 47085 at sub-MIC doses measured after 24 hrs by crystal violet staining based analysis; type: functional
Staphylococcus aureus [8] = assay: Antibiofilm activity against vancomycin-intermediate resistant Staphylococcus aureus ATCC 700699/Mu50 at 1/8 time MIC measured after 24 hrs by crystal violet staining based analysis; type: functional, organism-based
Enterococcus faecium [9] = assay: Antibiofilm activity against Enterococcus faecium clinical isolate at 1/8 times MIC measured after 24 hrs by crystal violet staining based analysis; type: functional, organism-based
Pseudomonas aeruginosa [10] = assay: Antibiofilm activity against Pseudomonas aeruginosa ATCC 47085 at 8 to 16 ug/ml measured after 24 hrs by crystal violet staining based analysis; type: functional, organism-based; settings: dose 8-16 µg/ml

Compound	MIC (Staphylococcus aureus [1]) [µg/mL]	MIC (Streptococcus pyogenes) [µg/mL]	MIC (Enterococcus faecium [2]) [µg/mL]	other results
Oc1c(Br)cc(Br)cc1-c1csc(-c2cc(Cl)c(Cl)[nH]2)n1	> 256	> 256	> 256	
Oc1c(F)cc(F)cc1-c1csc(-c2cc(Cl)c(Cl)[nH]2)n1	> 256	> 256	> 256	
Oc1ccc(C(F)(F)F)cc1-c1csc(-c2cc(Cl)c(Cl)[nH]2)n1	4 (≈ 10.5 µM)	4 (≈ 10.5 µM)	> 256	
Oc1c(Cl)cc(Cl)cc1-c1csc(-c2cc(Cl)c(Cl)[nH]2)n1	> 256	> 256	> 256	
Oc1c(F)cc(F)cc1-c1csc(-c2[nH]c(Br)c(Br)c2Br)n1	> 256	> 256	> 256	
O=C(c1cc(Cl)c(Cl)[nH]1)c1cc(Cl)cc(Cl)c1O	≤ 0.125	≤ 0.125	0.5 (≈ 1.54 µM)	IC50 (NCI-H1299): 0.82 µg/mL (≈ 2.52 µM); IC50 (NCI-H1975): 0.59 µg/mL (≈ 1.82 µM); Activity [3]: Toxic
Oc1c(Br)cc(Br)cc1-c1csc(-c2cc(Br)c(Br)[nH]2)n1	> 256	2 (≈ 3.58 µM)	> 256	
O=[N+]([O-])c1cc(-c2nc(-c3cc(C(F)(F)F)cc(Br)c3O)cs2)[nH]n1	8 (≈ 18.4 µM)	4 (≈ 9.19 µM)	> 256	
Oc1c(Cl)cc(Cl)cc1-c1csc(-c2cc(C(F)(F)F)n[nH]2)n1	4 (≈ 10.5 µM)	4 (≈ 10.5 µM)	4 (≈ 10.5 µM)	MIC (Pseudomonas aeruginosa [4]): > 256 µg/mL; MIC (Klebsiella pneumoniae): > 256 µg/mL; MIC (Acinetobacter baumannii): > 256 µg/mL; Activity (Staphylococcus aureus [5]): >60%; Activity (Enterococcus faecium [6]): >60%; Activity (Pseudomonas aeruginosa [7]): >60%; Activity (Staphylococcus aureus [8]): Active; Activity (Enterococcus faecium [9]): Active; Activity (Pseudomonas aeruginosa [10]): Active
O=[N+]([O-])c1cc(-c2nc(-c3cc(Br)cc(Br)c3O)cs2)[nH]n1	8 (≈ 17.9 µM)	2 (≈ 4.48 µM)	16 (≈ 35.9 µM)	MIC (Pseudomonas aeruginosa [4]): > 256 µg/mL; MIC (Klebsiella pneumoniae): > 256 µg/mL; MIC (Acinetobacter baumannii): > 256 µg/mL; Activity (Staphylococcus aureus [5]): >60%; Activity (Enterococcus faecium [6]): >60%; Activity (Pseudomonas aeruginosa [7]): >60%; Activity (Staphylococcus aureus [8]): Active; Activity (Enterococcus faecium [9]): Active; Activity (Pseudomonas aeruginosa [10]): Active
Oc1c(Br)cc(C(F)(F)F)cc1-c1csc(-c2cc(C(F)(F)F)n[nH]2)n1	8 (≈ 17.5 µM)	16 (≈ 34.9 µM)	8 (≈ 17.5 µM)	
Oc1c(Br)cc(C(F)(F)F)cc1-c1csc(-c2cc(Br)c(Br)[nH]2)n1	1 (≈ 1.83 µM)	0.5 (≈ 0.914 µM)	2 (≈ 3.66 µM)	
O=[N+]([O-])c1cc(-c2nc(-c3cc(Cl)cc(Cl)c3O)cs2)[nH]n1	128 (≈ 358 µM)	8 (≈ 22.4 µM)	> 256	
